Test results from US11440913B2, “Aminoimidazopyridazines as kinase inhibitors” (BRISTOL-MYERS SQUIBB COMPANY, priority 2017, dated 2022).
Where a name gives a salt, the structure may show the parent alone. Read-outs that look alike come from different tables or passages of the source.

Key:
[1] = molecular target: His-GST-TVMV-hRIPK1(1-324) (Homo sapiens (Human), UniProt Q13546); experiment: RIPK1 HTRF Binding Assay; settings: HTRF binding, 1 h at rt; read-out: RIPK1 (IC50)
Protocol: A solution was prepared containing 0.2 nM Anti GST-Tb (Cisbio, 61GSTTLB), 90.6 nM probe and 1 nM His-GST-TVMV-hRIPK1(1-324) in FRET Buffer (20 mM HEPES, 10 mM MgCl2, 0.015% Brij-35, 4 mM DTT, 0.05 mg/mL BSA). Using Formulatrix Tempest, the detection antibody/enzyme/probe solution ([…]) was dispensed into wells of a 1536 plate (Black Low Binding Polystyrene 1536 Plate (Corning, 3724)) containing 10 nL of compounds of interest at appropriate concentration in DMSO. The plate was incubated at rt for 1 h. FRET was measured using the EnVision plate reader (Excitation: 340 nm, Emission: 520 nm/[…]). Total signal (0% inhibition) was calculated from wells containing 10 nL DMSO only.
The coding region of human RIPK1(1-324) flanked by NdeI site at 5′ end and stop codon TGA and XhoI site at 3′ end was codon optimized and gene synthesized at GenScript USA Inc. (Piscataway, N.J.) and subcloned into a modified pFastBacl vector (Invitrogen, Carlsbad, Calif.) with N-terminal His-GST-TVMV tag, to generate His-GST-TVMV-hRIPK1(1-324)-pFB. The fidelity of the synthetic fragment was confirmed by sequencing.

[2] = test system: MLKL phosphorylation in HT29-L23 human colorectal adenocarcinoma cells; experiment: MLKL Phosphorylation High-Content Assay; type: cell-based; settings: 6 h, necroptosis induced with TNFα, SMAC mimetic and Z-VAD, read-out: pMLKL (IC50)
Protocol: MLKL Phosphorylation High-Content Assay
HT29-L23 human colorectal adenocarcinoma cells were maintained in RPMI 1640 medium containing 10% heat-inactivated FBS, 1% Pennicilin-Streptomycin and 10 mM HEPES. Cells were seeded at 2,000 cells/well in 384 w tissue culture-treated microplates (Greiner #781090-3B) and incubated at 37° C. (5% CO2/95% O2) for two days. On the day of assay, the cells were treated with test compounds at final concentrations of 6.25 to 0.106 μM for 30 min at 37° C. (5% CO2/95% O2). Necroptopsis was induced using a mixture of human TNFα (35 ng/mL) (Peprotech #300-01A), SMAC mimetic (from US 2015/0322111 A1) (700 nM) and Z-VAD (140 nM) (BD pharmingen #51-6936). Following six hours incubation at 37° C. (5% CO2/95% O2), the cells were fixed with 4% formaldedye (ACROS 11969-0010) for 15 min at room temperature and then permeabilized with phoshpate buffered saline (PBS) containing 0.2% Triton-X-100 for 10 min. MLKL phosporylation was detected using anti-MLKL (phospho S358) antibody (Abcam # ab187091) (1:1000 dilution in Blocking Buffer [PBS supplemented with 0.1% BSA]) with overnight incubation at 4° C. After washing three times in PBS, goat anti-rabbit Alexa-488 (1:1000 dilution) (Life Technologies, A11008) and Hoechst 33342 (Life Technologies, H3570) (1:2000 dilution) in Blocking Buffer were added for 1 h at room temperature. Following another three cycles of washes in PBS, the microplates were sealed, and cellular images were acquired in the Cellomics ArrayScan VTI high-content imager equipped with an X1 camera. Fluorescent images were taken using a 10× objective and the 386-23 BGRFRN_BGRFRN and 485-20 BGRFRN_BGRFRN filter sets, for nuclei and MLKL phosphorylation, respectively. The image sets were analyzed using the Compartmental Analysis Bioapplication software (Cellomics). The level of MLKL phosphorylation was quantified as MEAN_CircRingAvgIntenRatio. […] The IC50 value was defined as the concentration of compound that produces 50% of the maximal inhibition. The data were fitted using the 4-parameter logistic equation to calculate the IC50 and Ymax values.

Chain of His-GST-TVMV-hRIPK1(1-324) (Q13546 1-324): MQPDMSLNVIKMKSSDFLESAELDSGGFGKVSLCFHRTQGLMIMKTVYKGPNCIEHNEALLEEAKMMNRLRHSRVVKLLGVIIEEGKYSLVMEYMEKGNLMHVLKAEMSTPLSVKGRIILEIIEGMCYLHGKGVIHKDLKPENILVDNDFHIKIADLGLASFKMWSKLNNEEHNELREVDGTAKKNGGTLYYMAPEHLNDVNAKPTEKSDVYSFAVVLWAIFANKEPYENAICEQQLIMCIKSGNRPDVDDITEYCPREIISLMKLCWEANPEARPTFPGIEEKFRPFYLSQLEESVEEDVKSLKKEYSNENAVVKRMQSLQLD

Work on `CC(=O)Nc1cn2nc(-c3cnc(C)c(C(=O)N4CCCC(O)(Cc5ccc(F)cc5)C4)c3)ccc2n1` (centres unmarked) [Example 357, N-[6-(5-{3-[(4-fluorophenyl)methyl]-3-hydroxypiperidine-1-carbonyl}-6-methylpyridin-3-yl)imidazo[1,2-b]pyridazin-2-yl] acetamide] yielded an IC50 [1] of 335 nM and an IC50 ([2]; Homo sapiens) of 219 nM.
Compound `Cc1ncc(-c2ccc3nc(NC(=O)CN4CCCC4)cn3n2)cc1C(=O)N[C@H](C)c1cc(C(F)(F)F)ccc1F` [Example 333, N-[(1R)-1-[2-fluoro-5-(trifluoromethyl)-phenyl]ethyl]-2-methyl-5-{2-[2-(pynolidin-1-yl)acetamido]imidazo[1,2-b]pyridazin-6-yl}pyridine-3-carboxamide] has an IC50 [1] of 91 nM and an IC50 ([2]; Homo sapiens) of 218 nM.
Compound `CC(=O)Nc1cn2nc(-c3cnc(C(F)(F)F)c(C(=O)NCc4cc(OC(F)(F)F)ccc4F)c3)ccc2n1` [Example 18, 5-{2-acetamidoimidazo[1,2-b]pyridazin-6-yl}-N-{[2-fluoro-5-(trifluoromethoxy)phenyl]methyl}-2-(trifluoromethyl)pyridine-3-carboxamide] has an IC50 [1] of 145 nM and an IC50 ([2]; Homo sapiens) of 177 nM.
`CC(=O)Nc1cn2nc(-c3cc(C(=O)NCc4cc(C(=O)N5CCCC5(C)C)ccc4F)c(C)cc3F)ccc2n1` [Example 416, N-{[5-(2,2-dimethylpyrrolidine-1-carbonyl)-2-fluorophenyl]methyl}-5-{2-acetamidoimidazo [1,2-b]pyridazin-6-yl}-4-fluoro-2-methylbenzamide] gave an IC50 [1] of 13 nM and an IC50 ([2]; Homo sapiens) of 72 nM.
In the case of `[2H]C([2H])([2H])[C@H](NC(=O)c1cc(-c2ccc3nc(NC(C)=O)cn3n2)cnc1C)c1cc(C(F)(F)F)ccc1F` [Example 196, 5-{2-acetamidoimidazo[1,2-b]pyridazin-6-yl}-N-[(1S)-1-[2-fluoro-5-(trifluoromethyl)phenyl](2,2,2-deutero)ethyl]-2-methylpyridine-3-carboxamide], the IC50 [1] is reported as 45 nM and the IC50 ([2]; Homo sapiens) is reported as 5 nM.
`Cc1ncc(-c2ccc3nc(NC(=O)CO)cn3n2)cc1C(=O)N[C@H](C)c1cc(C(F)(F)F)ccc1F` [Example 182, N-[(1R)-1-[2-fluoro-5-(trifluoromethyl)phenyl]ethyl]-5-[2-(2-hydroxyacetamido)imidazo [1,2-b]pyridazin-6-yl]-2-methylpyridine-3-carboxamide, TFA] was tested, and the IC50 [1] was 272 nM and the IC50 ([2]; Homo sapiens) was 455 nM.
With `Cc1ncc(-c2ccc3nc(NC(=O)C(C)(C)C#N)cn3n2)cc1C(=O)NCc1ccccc1Sc1ccccc1CO` [Example 26, 5-[2-(2-cyano-2,2-dimethylacetamido)imidazo[1,2-b]pyridazin-6-yl]-N-[(2-{[2-(hydroxymethyl)phenyl]sulfanyl}phenyl)methyl]-2-methylpyridine-3-carboxamide] the IC50 [1] was 25 nM and the IC50 ([2]; Homo sapiens) was 192 nM.
`CC(=O)Nc1cn2nc(-c3cc(C(=O)NCc4cccc(F)c4OCC4CC4)cnc3C)ccc2n1` [Example 232, N-{[2-(cyclopropylmethoxy)-3-fluorophenyl]methyl}-5-{2-acetamidoimidazo[1,2-b]pyridazin-6-yl}-6-methylpyridine-3-carboxamide] was tested, and the IC50 [1] was 4 nM and the IC50 ([2]; Homo sapiens) was 4 nM.
In the case of `[2H]C([2H])([2H])Oc1ncc(-c2ccc3nc(NC(C)=O)cn3n2)cc1C(=O)NCc1ccccc1OC(F)(F)F` [Example 14, 5-{2-acetamidoimidazo[1,2-b]pyridazin-6-yl}-2-(D3)methoxy-N-{[2-(trifluoromethoxy)phenyl]methyl}pyridine-3-carboxamide], the IC50 [1] is reported as 33 nM and the IC50 ([2]; Homo sapiens) is reported as 69 nM.
In the case of `CC(=O)Nc1cn2nc(-c3cnc(C)c(C(=O)NCc4cc(OCC5CC5)ccc4F)c3)ccc2n1` [Example 215, N-{[5-(cyclopropylmethoxy)-2-fluorophenyl]methyl}-5-{2-acetamidoimidazo[1,2-b]pyridazin-6-yl}-2-methylpyridine-3-carboxamide], the IC50 [1] is reported as 8 nM and the IC50 ([2]; Homo sapiens) is reported as 22 nM.
In the case of `Cc1ncc(-c2ccc3nc(NC(=O)CN4CCC(F)(F)CC4)cn3n2)cc1C(=O)N[C@H](C)c1cc(OC(F)(F)F)ccc1F` [Example 334, 5-{2-[2-(4,4-difluoropiperidin-1-yl)acetamido]-imidazo[1,2-b]pyridazin-6-yl}-N-[(1R)-1-[2-fluoro-5-(trifluoromethoxy)-phenyl]ethyl]-2-methylpyridine-3-carboxamide], the IC50 [1] is reported as 15 nM and the IC50 ([2]; Homo sapiens) is reported as 10 nM.
`CC(=O)Nc1cn2nc(-c3cnc(Cl)c(C(=O)NC(C)c4cc(C(F)(F)F)ccc4F)c3)ccc2n1` (centres unmarked) [Example 269, 2-chloro-5-{2-acetamidoimidazo[1,2-b]pyridazin-6-yl}-N-{1-[2-fluoro-5-(trifluoromethyl)phenyl]ethyl}pyridine-3-carboxamide] gave an IC50 [1] of 55 nM and an IC50 ([2]; Homo sapiens) of 209 nM.
In the case of `COc1nc(C)c(-c2ccc3nc(NC(C)=O)cn3n2)cc1C(=O)NC(C)c1ccccc1OC(F)(F)F` (centres unmarked) [Example 291, 5-{2-acetamidoimidazo[1,2-b]pyridazin-6-yl}-2-methoxy-6-methyl-N-{1-[2-(trifluoromethoxy)phenyl]ethyl}pyridine-3-carboxamide], the IC50 [1] is reported as > 5000 nM and the IC50 [2] is reported as > 6250 nM.
Work on `[2H]C([2H])(Oc1c(F)cc(F)cc1CNC(=O)c1cc(-c2ccc3nc(NC(C)=O)cn3n2)cnc1Cl)C1CC1` [Example 266, 2-chloro-N-({2-[cyclopropyl(deutero)methoxy]-3,5-difluorophenyl}methyl)-5-{2-acetamidoimidazo[1,2-b]pyridazin-6-yl}pyridine-3-carboxamide, TFA] yielded an IC50 [1] of 3 nM and an IC50 ([2]; Homo sapiens) of 18 nM.
`COc1ncc(-c2ccc3nc(NC(=O)C(C)(C)C#N)cn3n2)cc1C(=O)NCc1cc(OC(F)(F)F)ccc1F` [Example 28, 5-[2-(2-cyano-2,2-dimethylacetamido)imidazo[1,2-b]pyridazin-6-yl]-N-{[2-fluoro-5-(trifluoromethoxy)phenyl]methyl}-2-methoxypyridine-3-carboxamide] gave an IC50 [1] of 285 nM and an IC50 ([2]; Homo sapiens) of 248 nM.
Work on `COc1ncc(-c2ccc3nc(NC(C)=O)cn3n2)cc1C(=O)NCc1cc(F)cc(F)c1OC1COC1` [Example 115, N-{[3,5-difluoro-2-(oxetan-3-yloxy)phenyl]methyl}-5-{2-acetamidoimidazo[1,2-b]pyridazin-6-yl}-2-methoxypyridine-3-carboxamide] yielded an IC50 [1] of 12 nM and an IC50 ([2]; Homo sapiens) of 65 nM.
Work on `CC(=O)Nc1cn2nc(-c3cnc(C)c(C(=O)NCc4cc(F)ccc4OCC4CCCC4)c3)ccc2n1` [Example 218, N-{[2-(cyclopentylmethoxy)-5-fluorophenyl]methyl}-5-{2-acetamidoimidazo[1,2-b]pyridazin-6-yl}-2-methylpyridine-3-carboxamide] yielded an IC50 [1] of 6 nM and an IC50 ([2]; Homo sapiens) of 15 nM.
`COc1ncc(-c2ccc3nc(NC(C)=O)cn3n2)cc1C(=O)NCc1cc(F)cc(F)c1O[C@H]1CCOC1` [Example 98, N-({3,5-difluoro-2-[(3S)-oxolan-3-yloxy]phenyl}methyl)-5-{2-acetamidoimidazo[1,2-b]pyridazin-6-yl}-2-methoxypyridine-3-carboxamide] was tested, and the IC50 [1] was 2 nM and the IC50 ([2]; Homo sapiens) was 39 nM.
`COc1nc(C)c(-c2ccc3nc(NC(C)=O)cn3n2)cc1C(=O)NCc1cc(F)cc(F)c1OCC1CC1` [Example 287, N-{[2-(cyclopropylmethoxy)-3,5-difluorophenyl](deutero)methyl}-5-{2-acetamidoimidazo[1,2-b]pyridazin-6-yl}-2-methoxy-6-methylpyridine-3-carboxamide] was tested, and the IC50 [1] was 4 nM and the IC50 [2] was 2 nM.
